Patent US8796317B2, “Use of 7-nitro-2,1,3-benzoxadiazole derivatives for anticancer therapy” (Universita Degli Studi di Roma “Tor Vergata”, priority 2003, dated 2014)
Values joined by “and” are separate entries in the source; they are usually repeats but may differ in a detail not shown here. Equal entries are not always repeated.

Experiments:
[1] = target: T1, GST M2-2 (Homo sapiens, UniProt P28161); assay: Inhibition of GST activity (CDNB/GSH spectrophotometric assay); type: biochemical; settings: 25° C., pH 6.5, 1 mM glutathione, 1 mM CDNB
T1 construct: made in house; host or cells: Escherichia coli
T1 sequence (P28161 1-218): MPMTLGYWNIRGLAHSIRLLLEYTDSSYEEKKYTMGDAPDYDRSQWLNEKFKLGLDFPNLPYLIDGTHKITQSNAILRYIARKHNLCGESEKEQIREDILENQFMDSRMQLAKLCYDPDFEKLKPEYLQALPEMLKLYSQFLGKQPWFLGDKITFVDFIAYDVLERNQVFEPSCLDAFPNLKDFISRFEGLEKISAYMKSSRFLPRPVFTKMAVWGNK
Procedure: (§1) These compounds were tested as inhibitors of the activity of the isoenzymes GSTP1-1, GSTA1-1 and GSTM2-2 belonging to the most representative GST classes: the Pi, Mu and Alpha classes.
(§2) GSTA1-1, M2-2 and P1-1, expressed in Escherichia coli, were purified by using a chromatographic passage on an affinity resin capable of selectively retaining the GST (J. Biol. Chem. 270, (1995), 1249-1253).
(§3) GST activity was tested at 25° C. with a 0.1 M potassium phosphate buffer, at pH 6.5, in the presence of the substrates, i.e. of the glutathione (Sigma-Aldrich, Fine Chemicals) in a concentration of 1 mM, and of 1-chloro-2,4-dinitrobenzene (CDNB) (Sigma-Aldrich, Fine Chemicals) 1 mM (Methods Enzymol. 77, 1981, 398-405).
(§4) Enzymatic activity was assessed spectrophotometrically at 340 nm, a wavelength at which it absorbs the reaction product S-(2,4-dinitrobenzene)glutathione (GS-DNB) (6=9.6 mM^−1 cm^−1).

[2] = target: T2, GST A1-1 (Homo sapiens, UniProt P08263); assay: as above; type: biochemical; settings: 25° C., pH 6.5, 1 mM glutathione, 1 mM CDNB
T2 construct: made in house; host or cells: Escherichia coli
T2 sequence (P08263 1-222): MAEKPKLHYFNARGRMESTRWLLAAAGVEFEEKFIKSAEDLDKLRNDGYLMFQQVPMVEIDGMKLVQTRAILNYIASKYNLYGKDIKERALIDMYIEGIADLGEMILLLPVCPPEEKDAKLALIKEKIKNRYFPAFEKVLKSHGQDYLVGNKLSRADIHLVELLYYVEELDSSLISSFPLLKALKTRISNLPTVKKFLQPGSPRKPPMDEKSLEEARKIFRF
Procedure: as §1, §2, §3, §4

[3] = system: K562, HepG2, CEM1.3 and GLC-4 cancer cell lines; assay: Cytotoxicity, viability and cell penetration on all the tested cancer cell lines; type: cell-based, human
Procedure: (§5) Four cancer cell lines were used for testing the anticancer activity of the derivatives of 7-nitro-2,1,3-benzoxadiazole: K562 (human myeloid leukaemia), HepG2 (human hepatic carcinoma), CEM1.3 (human T-lymphoblastic leukaemia) and GLC-4 (human small cell lung carcinoma).
(§6) The human cancer cell lines were maintained in RPMI 1640 (containing L-glutamine 2 mM and 0.1 g/l of penicillin-G/streptomycin sulphate) enriched with 5% foetal bovine serum (FBS), at 37° C., 5% CO2 and 98% humidity.
The cells were placed in 96-well plates at a density of 15,000 cells per well, in a culture medium volume of 100 μl. After 24 hours, each of the 7-nitro-2,1,3-benzoxadiazole derivatives to be assayed, at the required concentration, was added to the culture medium. At the same time, some control trials were arranged by adding to the wells the solvent in which the compound was dissolved (% v/v of DMSO in PBS). All measurements were carried out in quadruplicate. […]
(§7) After incubation, the percentage cell growth was evaluated by an insitu cell fixation procedure, followed by an SRB test using a colouring procedure with sulphorodamine B capable of specifically binding to proteins. The coloured product was then solubilised and quantified spectrophotometrically in order to determine the growth of the cells treated with the compound under study with respect to the ones treated with the solvent only.

[4] = target: T3, GST P1-1 (Homo sapiens, UniProt P09211); assay: Inhibition of GST activity (CDNB/GSH spectrophotometric assay); type: biochemical; settings: for IC50: 25° C., pH 6.5, 1 mM glutathione, 1 mM CDNB
T3 construct: made in house; host or cells: Escherichia coli
T3 sequence (P09211 2-210 limits assumed): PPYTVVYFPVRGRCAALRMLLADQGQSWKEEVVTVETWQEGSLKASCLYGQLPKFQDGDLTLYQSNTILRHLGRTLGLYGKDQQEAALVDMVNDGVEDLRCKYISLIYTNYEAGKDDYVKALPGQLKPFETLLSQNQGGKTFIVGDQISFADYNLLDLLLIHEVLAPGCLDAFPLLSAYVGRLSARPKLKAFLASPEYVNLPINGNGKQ
Procedure: as §2, §3, §4

[5] = system: GLC-4 (human small cell lung carcinoma); assay: SRB cell growth test; type: cell-based; settings: GLC4, read-out: Activity trials on cell lines - IC50 (50% inhibition of cell growth), GLC-4, 48 hours
Procedure: as §5, §6
(§8) The cells were placed in 96-well plates at a density of 15,000 cells per well, in a culture medium volume of 100 μl. After 24 hours, each of the 7-nitro-2,1,3-benzoxadiazole derivatives to be assayed, at the required concentration, was added to the culture medium. At the same time, some control trials were arranged by adding to the wells the solvent in which the compound was dissolved (% v/v of DMSO in PBS). All measurements were carried out in quadruplicate.
(§9) The cells were incubated for 48 hours at 37° C., at 5% CO2.
(§10) In order to obtain a dose-response profile for each derivative of 7-nitro-2,1,3-benzoxadiazole under study, an evaluation process based on the method described by Shekan et al (J. Natl. Cancer. Inst. 82, (1990), 1107-1112) was used.
as §7

[6] = system: K562 (human myeloid leukaemia); assay: SRB cell growth test; type: cell-based; settings: K562, read-out: Activity trials on cell lines - IC50 (50% inhibition of cell growth), K562, 48 hours
Procedure: as §5, §6, §8, §9, §10, §7

[7] = system: CEM1.3 (human T-lymphoblastic leukaemia); assay: SRB cell growth test; type: cell-based; settings: CEM13, read-out: Activity trials on cell lines - IC50 (50% inhibition of cell growth), CEM1.3, 48 hours
Procedure: as §5, §6, §8, §9, §10, §7

[8] = system: HepG2 (human hepatic carcinoma); assay: SRB cell growth test; type: cell-based; settings: HepG2, read-out: Activity trials on cell lines - IC50 (50% inhibition of cell growth), HepG2, 48 hours
Procedure: as §5, §6, §8, §9, §10, §7

[9] = system: K562 cells; assay: Flow cytometric analysis of apoptosis (Annexin V-FITC / PI); type: cell-based, human; settings: K562, 10 μM
Procedure: (§11) Cells were washed in PBS, and stained with propidium iodide and with the impermeant dye Annexin V-FITC (Bender MedSystems, Vienna, Austria). The stained cells were analysed using a FACScan Flow Cytometer (Becton-Dickinson, CA). Data were recorded and statistically analysed by WinMDI version 2.8 software. Simultaneous staining of cells with Annexin V-FITC and PI allows the discrimination of intact cells, early apoptotic and late apoptotic or necrotic cells.

[10] = system: CEM1.3 cells; assay: as above; type: cell-based, human; settings: CEM1.3, 2 μM
Procedure: as §11

[11] = system: caspase-3 in K562 cells; assay: Caspase-3 activation (Ac-DEVD-AFC) in cell lysates; type: cell-based, human; settings: K562, 10 μM, after 24 h
Procedure: Pellets of cells at different times of incubation with 7-nitro-benzofurazan derivative No. 2 (10 μM and 2 μM with K562 and CEM1.3 respectively), were resuspended with lysis buffer (100 mM Hepes, pH 7.6, 0.1% Chaps, 1 mM EDTA, 1 mM Phenyl-methyl-sulphonyl-fluoride and 10 mM DTT) for 20 min on ice and cells were disrupted by 10-s sonication. Lysates, after centrifugation, were utilized to measure the caspase-3 activity. The substrate utilized was the model fluorescent peptide Ac-DEVD-AFC (Acetyl-Asp-GluVal-Asp-7-amino-4-trifluoromethyl coumarin) which was proteolyzed by caspase-3 resulting in a fluorescence emission at 505 nm (excitation at 400 nm). As control, lysates were incubated 30 min at 30° C. with the caspase inhibitor DEVD-CHO before evaluation of enzyme activity. Caspase activity was expressed as fluorescence change observed per minute per number of cells.

[12] = target: T4, GST-JNK complex in K562 cells (Homo sapiens, UniProt P09211); assay: Immunoprecipitation with anti-JNK antibody and Western blot; type: cell-based; settings: K562 lysates, 10 μM; slightly increases only after 3 h
T4 construct: K562 cell lysates were immunoprecipitated with an anti-JNK antybody and used for Western blot analysis; endogenous in cells; host or cells: K562
T4 sequence (P09211 2-210 limits assumed, one chain of several): as the sequence (P09211 2-210 limits assumed) above
Procedure: For the immunoprecipitation analysis, cell pellets were resuspended in lysis buffer, and cells were disrupted by 10-s sonication. Lysates were then centrifuged at 14,000 g for 15 min at 4° C. Proteins were incubated in lysis buffer with anti-JNK antibody for 2 h at 4° C. Immunocomplexes were absorbed with protein A-Sepharose for 30 min at 4° C. After three washes with lysis buffer, immune pellets were boiled in SDS sample buffer. Proteins were loaded on 15% SDS-polyacrylamide gel and transferred to nitrocellulose. GST, JNK and phospho-JNK were detected by specific antibody.
To assess if cell treatment with derivative No. 2 affects the amount of GST-JNK complex, K562 cell lysates were immunoprecipitated with an anti-JNK antybody and used for Western blot analysis.

[13] = system: CEMVBL100, leukaemia line resistant to vinblastine (hyperexpressing P-glycoprotein); assay: Cytotoxicity of vinblastine on resistant cells with and without the derivative (SRB test); type: cell-based; settings: CEM/VBL100, 48 h
Procedure: In cancer cells the resistance to many anticancer drugs is often associated with a high expression of P-glycoprotein, a membrane protein belonging to the overall family of ABC transporters (ATP-binding cassette).
The cells were placed in 96-well strips at a density of 15,000 cells per well, in a volume of culture medium of 100 μl. After 24 hours, a suitable concentration of between 25 nM and 1000 nM of vinblastine was added to the culture medium. […] At the same time, some control trials were arranged by adding to the wells the solvent in which the compound was dissolved (% v/v of DMSO in PBS). All measurements were carried out in quadruplicate. After 48 hours of incubation, a dosage-response profile was obtained by using the SRB test (J. Natl. Cancer. Inst. 82, (1990), 1107-1112, loc. cit.).

Row | SMILES | IC50 [1] | IC50 [2] | viability of all the tested cancer cell lines ([3]; 48 hours of incubation with 50 μM) | penetration into the cells (intracellular fluorescence) ([3]; after 6 hours of incubation, various concentrations) | inhibition activity with regard to the enzymatic isoform GSTP1-1 (in words) [4] | IC50 [5] | IC50 [6] | IC50 [7] | IC50 [8] | apoptosis ([9]; 12 h treatment) | apoptosis ([9]; after 24 h) | apoptosis ([10]; 12 h treatment) | apoptosis ([10]; after 24 h) | caspase-3 activity [11] | amount of GSTP1-1 that co-precipitates with JNK [12] | IC50 ([13]; CEM VBL100, 7-nitro-2,1,3-benzoxadiazole derivative absent) | IC50 ([13]; CEM VBL100, with 0.5 μM 6-(7-nitro-2,1,3-benzoxadiazol-4-ylthio)hexanol) | IC50 [4]
1 | O=[N+]([O-])c1ccc(NCCCCCCO)c2nonc12 [(6), 6-(7-nitro-2,1,3-benzoxadiazol-4-ylamino)hexanol] | ~2 µM and 1.8 µM | > 100 µM | still viable | easily penetrate the cells | no inhibition activity | > 50 µM | > 50 µM | > 50 µM | > 50 µM |  |  |  |  |  |  |  |  | 
2 | O=[N+]([O-])c1ccc(SCCCCCCO)c2nonc12 [(2), 6-(7-nitro-2,1,3-benzoxadiazol-4-ylthio)hexanol] | 0.01 µM | 25 µM |  |  |  | 1.4 µM | 0.8 µM | 0.1 µM | 2.9 µM | 30% | 41% | 34% | 47% | strong increase of caspase-3 | rapidly decreased |  |  | 
3 | CC[C@]1(O)C[C@@H]2CN(CCc3c([nH]c4ccccc34)[C@@](C(=O)OC)(c3cc4c(cc3OC)N(C)[C@H]3[C@@](O)(C(=O)OC)[C@H](OC(C)=O)[C@]5(CC)C=CCN6CC[C@]43[C@@H]65)C2)C1 [vinblastine] |  |  |  |  |  |  |  |  |  |  |  |  |  |  |  | 0.34 µM | 0.05 µM | 
4 | O=[N+]([O-])c1ccc(SCCCCO)c2nonc12 [(1), 4-(7-nitro-2,1,3-benzoxadiazol-4-ylthio)butanol] | 0.03 µM | 56 µM |  |  |  | 3.2 µM | 2.2 µM | 0.2 µM | 3.2 µM |  |  |  |  |  |  |  |  | 2 µM
5 | O=[N+]([O-])c1ccc(Sc2ncc[nH]2)c2nonc12 [(3), 2-(7-nitro-2,1,3-benzoxadiazol-4-ylthio)imidazole] | 0.01 µM | 11 µM |  |  |  | 10 µM | 8.8 µM | 3.9 µM | 16 µM |  |  |  |  |  |  |  |  | 6.3 µM
6 | O=C(O)CCSc1ccc([N+](=O)[O-])c2nonc12 [(5), 3-(7-nitro-2,1,3-benzoxadiazol-4-ylthio)propionic acid] | 0.31 µM | 66 µM |  |  |  | 16.5 µM | 38 µM | 6.5 µM | 25 µM |  |  |  |  |  |  |  |  | 5.74 µM
7 | O=[N+]([O-])c1ccc(Sc2ccc(O)cc2)c2nonc12 [(4), 4-(7-nitro-2,1,3-benzoxadiazol-4-ylthio)phenol] | 0.03 µM | 6.5 µM |  |  |  | 7.5 µM | 6.4 µM | 2.4 µM | 16.3 µM |  |  |  |  |  |  |  |  | 0.7 µM
